# Results reported in patent US20090035394A1, “USE OF DNA-PK INHIBITION TO SENSITISE ATM DEFICIENT CANCERS TO DNA-DAMAGING CANCER THERAPIES” (priority 2005, published 2009).
# Entries after “also recorded” stand apart in the source; their conditions may differ.
# Key:
# Assay type in all cases: cell-based, human
# [1] = tested on: pEBS7 (ATM-null) cells; assay: Chemopotentiation, sulforhodamine B growth assay in 96 well plates; settings: for % survival / Avg (absorbance at 564 nm): pEBS7
# Description: (§1) The A-T fibroblast AT221JE-T cells (pEBS7, herein referred to as ATM-null cells) and the trans-complemented ATM+/+ (pEBS7-YZ5, herein referred to as ATM-competent cells) were grown in DMEM+20% FBS PSG and 100 ug/ml hygromycin. These cells are immortalised fibroblasts from an A-T patient which were transfected with pEBS7-YZ5 vector coding for full length ATM and the hygromycin resistance marker or pEBS7 vector, coding for the hygromycin resistance marker only. (Ziv Y et al (1997) Oncogene 15, 159-67)
# (§2) Following a 4-hour incubation to allow cell adherence, 5 μl DNA-PKcS inhibitor KU-0060648 (final concentration 0.5 μM) or DMSO/PBS equivalent was added. After a further 1 hour incubation, 5 μl of chemotherapeutic drug was added per well (see table 1). Drugs were removed after 16 hours and 150 μl fresh medium added per well. After 24h, one plate for each cell line was fixed and stained to account for background differences between the lines. Five days after seeding, the medium was aspirated from the wells of the remaining assay plates and 100 μl ice cold 10% TCA added for 30 minutes at 4° C. The wells were then washed four times with tap water and 50 μl 0.4% sulforhodamine B in 1% acetic acid added per well. After 15 minutes incubation at room temperature, excess stain was washed from the wells with 1% acetic acid. 100 μl […] pH6.8 was then added per well, the plates shaken to resuspend the stain and the absorbance at 564 nm determined.
# [2] = tested on: pEBS7-YZ5 (ATM-competent, ATM+/+) cells; assay: as above; settings: for % survival / Avg (absorbance at 564 nm): pEBS7-YZ
# Description: as §1, §2
# [3] = tested on: pEBS7 (ATM-null) cells; assay: Radio-potentiation, colony formation after ionising radiation; settings: for % survival: ATM-null pEBS7
# Description: as §1
# (§3) To show radio-potentiation, 2×10^5 cells per well were seeded into 6 well cluster plates. One plate was used for each dose of irradiation. After allowing the cells to adhere for 4 hours, the cells were dosed with a final concentration of 0.5 μM of the DNA-PKcs inhibitor KU-0060648 or equivalent DMSO/PBS control. After further incubation for 1 hour, the cells were irradiated with 0, 0.5, 1, 2 and 4 Grays. After 16 hours incubation, the cells were washed with 1 ml PBS and 500 μl trypsin EDTA added for 5 minutes at 37° C. 1.5 ml fresh medium was then added and the cell density in the untreated (0 Gy) wells determined. All subsequent calculations for seeding densities were performed according to this cell count. Cells were then replated into 2 mls fresh medium in 6 well cluster plates at the appropriate cell densities. After 6 days' incubation, the medium was removed by aspiration and cell colonies stained using 400 μl per well Giemsa stain for 20 minutes. Excess stain was washed from the plates with tap water and the plates left to air-dry. The number of colonies per well was then counted using Colcount software.
# [4] = tested on: pEBS7-YZ5 (ATM-competent, ATM+/+) cells; assay: as above; settings: for % survival: ATM-competent pEBS7-YZ
# Description: as §1, §3
# [5] = KU-0060648 0.5 μM + doxorubicin 0
# [6] = KU-0060648 0.5 μM + doxorubicin 0.01 (unit not given)
# [7] = KU-0060648 0.5 μM + doxorubicin 0.025 (unit not given)
# [8] = KU-0060648 0.5 μM + doxorubicin 0.05 (unit not given)
# [9] = KU-0060648 0.5 μM + doxorubicin 0.075 (unit not given)
# [10] = KU-0060648 0.5 μM + doxorubicin 0.1 (unit not given)
# [11] = KU-0060648 0.5 μM + doxorubicin 0.25 (unit not given)
# [12] = KU-0060648 0.5 μM + doxorubicin 0.5 (unit not given)
# [13] = KU-0060648 0.5 μM + doxorubicin 0.75 (unit not given)
# [14] = KU-0060648 0.5 μM + doxorubicin 1 (unit not given)
# [15] = KU-0060648 0.5 μM + doxorubicin 2.5 (unit not given)
# [16] = KU-0060648 0.5 μM + doxorubicin 5 (unit not given)
# [17] = KU-0060648 0.5 μM + etoposide 0
# [18] = KU-0060648 0.5 μM + etoposide 0.01 (μg/ml per Table 1)
# [19] = KU-0060648 0.5 μM + etoposide 0.025 (μg/ml per Table 1)
# [20] = KU-0060648 0.5 μM + etoposide 0.05 (μg/ml per Table 1)
# [21] = KU-0060648 0.5 μM + etoposide 0.075 (μg/ml per Table 1)
# [22] = KU-0060648 0.5 μM + etoposide 0.1 (μg/ml per Table 1)
# [23] = KU-0060648 0.5 μM + etoposide 0.25 (μg/ml per Table 1)
# [24] = KU-0060648 0.5 μM + etoposide 0.5 (μg/ml per Table 1)
# [25] = KU-0060648 0.5 μM + etoposide 0.75 (μg/ml per Table 1)
# [26] = KU-0060648 0.5 μM + etoposide 1 (μg/ml per Table 1)
# [27] = KU-0060648 0.5 μM + etoposide 2.5 (μg/ml per Table 1)
# [28] = KU-0060648 0.5 μM + etoposide 5 (μg/ml per Table 1)
smiles,measurement,setting,value
"CCN1CCN(CC(=O)Nc2ccc(-c3cccc4c(=O)cc(N5CCOCC5)oc34)c3sc4ccccc4c23)CC1 [KU-0060648, 2-(4-Ethyl-piperazin-1-yl)-N-[4-(2-morpholin-4-yl-4-oxo-4H-1-benzopyran-8-yl)-dibenzothiophen-1-yl]-acetamide]",potentiation of etoposide,[1]; ATM-null cells,increased sensitisation; also recorded: significantly potentiated
same,potentiation of the effect of doxorubicin,[1]; ATM-null cells,increased sensitivity; also recorded: significantly potentiate
same,% survival,[1]; [5],100%
same,Avg (absorbance at 564 nm),[1]; [5],1.42
same,% survival,[1]; [6],107.9%
same,Avg (absorbance at 564 nm),[1]; [6],1.53
same,% survival,[1]; [7],87.0%
same,Avg (absorbance at 564 nm),[1]; [7],1.23
same,% survival,[1]; [8],81.3%
same,Avg (absorbance at 564 nm),[1]; [8],1.15
same,% survival,[1]; [9],82.3%
same,Avg (absorbance at 564 nm),[1]; [9],1.17
same,% survival,[1]; [10],88.7%
same,Avg (absorbance at 564 nm),[1]; [10],1.26
same,% survival,[1]; [11],22.1%
same,Avg (absorbance at 564 nm),[1]; [11],0.31
same,% survival,[1]; [12],6.2%
same,Avg (absorbance at 564 nm),[1]; [12],0.09
same,% survival,[1]; [13],0.6%
same,Avg (absorbance at 564 nm),[1]; [13],0.01
same,% survival,[1]; [14],−2.2%
same,Avg (absorbance at 564 nm),[1]; [14],−0.03
same,% survival,[1]; [15],−2.0%
same,Avg (absorbance at 564 nm),[1]; [15],−0.03
same,% survival,[1]; [16],−0.8%
same,Avg (absorbance at 564 nm),[1]; [16],−0.01
same,% survival,[1]; [17],100%
same,Avg (absorbance at 564 nm),[1]; [17],1.61
same,% survival,[1]; [18],84.7%
same,Avg (absorbance at 564 nm),[1]; [18],1.36
same,% survival,[1]; [19],72.7%
same,Avg (absorbance at 564 nm),[1]; [19],1.17
same,% survival,[1]; [20],72.7%
same,Avg (absorbance at 564 nm),[1]; [20],1.17
same,% survival,[1]; [21],62.3%
same,Avg (absorbance at 564 nm),[1]; [21],1.00
same,% survival,[1]; [22],27.9%
same,Avg (absorbance at 564 nm),[1]; [22],0.45
same,% survival,[1]; [23],13.6%
same,Avg (absorbance at 564 nm),[1]; [23],0.22
same,% survival,[1]; [24],7.9%
same,Avg (absorbance at 564 nm),[1]; [24],0.13
same,% survival,[1]; [25],1.2%
same,Avg (absorbance at 564 nm),[1]; [25],0.02
same,% survival,[1]; [26],−0.4%
same,Avg (absorbance at 564 nm),[1]; [26],−0.01
same,% survival,[1]; [27],−1.5%
same,Avg (absorbance at 564 nm),[1]; [27],−0.02
same,% survival,[1]; [28],−1.7%
same,Avg (absorbance at 564 nm),[1]; [28],−0.03
same,potentiation of etoposide,[2]; ATM-competent cells,not
same,potentiation of the effect of doxorubicin,[2]; ATM-competent cells,not
same,% survival,[2]; [5],100%
same,Avg (absorbance at 564 nm),[2]; [5],1.62
same,% survival,[2]; [6],92.3%
same,Avg (absorbance at 564 nm),[2]; [6],1.50
same,% survival,[2]; [7],96.1%
same,Avg (absorbance at 564 nm),[2]; [7],1.56
same,% survival,[2]; [8],102.9%
same,Avg (absorbance at 564 nm),[2]; [8],1.67
same,% survival,[2]; [9],94.1%
same,Avg (absorbance at 564 nm),[2]; [9],1.53
same,% survival,[2]; [10],98.5%
same,Avg (absorbance at 564 nm),[2]; [10],1.60
same,% survival,[2]; [11],80.4%
same,Avg (absorbance at 564 nm),[2]; [11],1.30
same,% survival,[2]; [12],36.6%
same,Avg (absorbance at 564 nm),[2]; [12],0.59
same,% survival,[2]; [13],23.4%
same,Avg (absorbance at 564 nm),[2]; [13],0.38
same,% survival,[2]; [14],1.1%
same,Avg (absorbance at 564 nm),[2]; [14],0.02
same,% survival,[2]; [15],−2.1%
same,Avg (absorbance at 564 nm),[2]; [15],−0.03
same,% survival,[2]; [16],−1.9%
same,Avg (absorbance at 564 nm),[2]; [16],−0.03
same,% survival,[2]; [17],100%
same,Avg (absorbance at 564 nm),[2]; [17],1.79
same,% survival,[2]; [18],88.8%
same,Avg (absorbance at 564 nm),[2]; [18],1.59
same,% survival,[2]; [19],84.9%
same,Avg (absorbance at 564 nm),[2]; [19],1.52
same,% survival,[2]; [20],87.2%
same,Avg (absorbance at 564 nm),[2]; [20],1.56
same,% survival,[2]; [21],86.1%
same,Avg (absorbance at 564 nm),[2]; [21],1.54
same,% survival,[2]; [22],88.9%
same,Avg (absorbance at 564 nm),[2]; [22],1.59
same,% survival,[2]; [23],102.7%
same,Avg (absorbance at 564 nm),[2]; [23],1.84
same,% survival,[2]; [24],55.0%
same,Avg (absorbance at 564 nm),[2]; [24],0.99
same,% survival,[2]; [25],27.6%
same,Avg (absorbance at 564 nm),[2]; [25],0.49
same,% survival,[2]; [26],4.5%
same,Avg (absorbance at 564 nm),[2]; [26],0.08
same,% survival,[2]; [27],5.7%
same,Avg (absorbance at 564 nm),[2]; [27],0.10
same,% survival,[2]; [28],8.6%
same,Avg (absorbance at 564 nm),[2]; [28],0.15
same,potentiation of the effect of irradiation,[3]; ATM-null cells,increased sensitivity; also recorded: significantly potentiate
same,% survival,[3]; KU-0060648 0.5 μM + IR 0 Gy,100.0%
same,% survival,[3]; KU-0060648 0.5 μM + IR 0.5 Gy,15.8%
same,% survival,[3]; KU-0060648 0.5 μM + IR 1 Gy,3.8%
same,% survival,[3]; KU-0060648 0.5 μM + IR 2 Gy,1.3%
same,% survival,[3]; KU-0060648 0.5 μM + IR 4 Gy,0.3%
same,2Gy DMR (dose modification ratio),"[3]; single 2 Gy without / with KU-0060648 (0.5 μM), pEBS7 (ATM-null)",5.7
same,potentiation of the effect of irradiation,[4]; ATM-competent cells,not
same,% survival,[4]; KU-0060648 0.5 μM + IR 0 Gy,100.0%
same,% survival,[4]; KU-0060648 0.5 μM + IR 0.5 Gy,39.3%
same,% survival,[4]; KU-0060648 0.5 μM + IR 1 Gy,13.5%
same,% survival,[4]; KU-0060648 0.5 μM + IR 2 Gy,6.2%
same,% survival,[4]; KU-0060648 0.5 μM + IR 4 Gy,1.7%
same,2Gy DMR (dose modification ratio),"[4]; single 2 Gy without / with KU-0060648 (0.5 μM), pEBS7-YZ (ATM-competent)",2.0
